Key:
[1] = tested on: sheep liver fluke (Fasciola hepatica); assay: Fluke egg count in faeces and adult fluke count in liver of infected sheep after a single s/c dose (Table 3); assay type: in vivo; settings: for POST MORTEM RESULT No. of adult fluke: liver
Protocol: Compositions suitable for use as experimental injectable solutions were prepared by formulating the compounds as solutions of their salts either in water or in a mixture of water and ethylene glycol or water and polyethylene glycol (PEG200).
Compositions prepared by the method of Example 10 were used as a single dose to test sheep infected with sheep liver fluke (Fasciola hepatica). The number of liver fluke eggs in the faeces was measured at the time of treatment and at selected intervals up to 30 days after treatment. The sheep were killed and the number of adult fluke in the liver counted. The amount and structure of the active ingredient in each composition and the results of treatment of a sheep with that composition are given in the Table 3 below. The compositions were administered by sub-cutaneous injection (s/c).

immature fluke = assay: Effectiveness against immature fluke (Table 3 footnotes); assay type: in vivo, Fasciola hepatica
live Fasciola hepatica = assay: Minimum effective concentration against live Fasciola hepatica in Hedon-Fleig medium (Table 4); settings: in vitro, assessed 24 hours after treatment, read-out: MINIMUM EFFECTIVE CONCENTRATION (minimum concentration required to kill Fasciola hepatica)
Protocol: The minimum effective concentration of compounds of formula I against live Fasciola hepatica was tested by the direct application of the test compound, in solution, to live Fasciola hepatica in Hedon-Fleig medium. The results are given in Table 4 where the minimum effective concentration (minimum concentration required to kill Fasciola hepatica) was assessed 24 hours after treatment with the test compound.

Which results are given for `O=[N+]([O-])c1cc(Cl)cc(C(=C(Cl)Cl)c2cc(Cl)cc([N+](=O)[O-])c2O)c1O` [Compound 14]?
FAECAL EGG COUNT, day 7 ([1]; single dose 0.5 mg/kg): 0 Eggs/g faeces; FAECAL EGG COUNT, day 14 ([1]; single dose 0.5 mg/kg): 0 Eggs/g faeces; POST MORTEM RESULT No. of adult fluke ([1]; single dose 0.5 mg/kg): 0; FAECAL EGG COUNT, day 7 ([1]; single dose 2.0 mg/kg): 60 Eggs/g faeces; FAECAL EGG COUNT, day 14 ([1]; single dose 2.0 mg/kg): 0 Eggs/g faeces; POST MORTEM RESULT No. of adult fluke ([1]; single dose 2.0 mg/kg): 0; FAECAL EGG COUNT, day 7 ([1]; single dose 12.5 mg/kg): 0 Eggs/g faeces; FAECAL EGG COUNT, day 14 ([1]; single dose 12.5 mg/kg): 0 Eggs/g faeces; POST MORTEM RESULT No. of adult fluke ([1]; single dose 12.5 mg/kg): 0; effective against immature fluke (immature fluke; 10 mg/kg): 90.6%; effective against immature fluke (immature fluke; 15 mg/kg): 100%

Which results are given for `O=[N+]([O-])c1cc(Br)cc(C(=C(Cl)Cl)c2cc(Br)cc([N+](=O)[O-])c2O)c1O` [Compound 15]?
FAECAL EGG COUNT, day 7 ([1]; single dose 2.0 mg/kg): 0 Eggs/g faeces; FAECAL EGG COUNT, day 14 ([1]; single dose 2.0 mg/kg): 0 Eggs/g faeces; POST MORTEM RESULT No. of adult fluke ([1]; single dose 2.0 mg/kg): 0; FAECAL EGG COUNT, day 7 ([1]; single dose 12.5 mg/kg): 0 Eggs/g faeces; FAECAL EGG COUNT, day 14 ([1]; single dose 12.5 mg/kg): 0 Eggs/g faeces; POST MORTEM RESULT No. of adult fluke ([1]; single dose 12.5 mg/kg): 0; effective against immature fluke (immature fluke; 10 mg/kg): 91.4%; effective against immature fluke (immature fluke; 15 mg/kg): 94%

`O=[N+]([O-])c1cc(Cl)cc(C(SCc2ccc(Cl)cc2)c2cc(Cl)cc([N+](=O)[O-])c2O)c1O` [Compound 49] was tested. Which minimal effective concentration (live Fasciola hepatica) did it give?
Its minimal effective concentration is 1.5 µg/mL.

With `O=[N+]([O-])c1ccc(SC(c2cc(Cl)cc([N+](=O)[O-])c2O)c2cc(Cl)cc([N+](=O)[O-])c2O)cc1` [Compound 52] as the molecule, how does the minimal effective concentration (live Fasciola hepatica) read?
The minimal effective concentration was 1 µg/mL.

`O=[N+]([O-])c1cc(Cl)cc(C(c2cc(Cl)cc([N+](=O)[O-])c2O)C(F)(F)F)c1O` [Compound 53, 1,1-Bis(5-chloro-2-hydroxy-3-nitrophenyl)-2,2,2-trifluoroethane] was tested. Which “FAECAL EGG COUNT, day 7” value ([1]; single dose 3.0 mg/kg) did it give?
The value was 460 Eggs/g faeces.

And the “FAECAL EGG COUNT, day 14” value ([1]; single dose 3.0 mg/kg)?
The value was 0 Eggs/g faeces.

And the “POST MORTEM RESULT No. of adult fluke” value ([1]; single dose 3.0 mg/kg)?
The value was 0.

What about the “FAECAL EGG COUNT, day 7” value ([1]; single dose 6.0 mg/kg) of the same molecule?
The value was 0 Eggs/g faeces.

And the “FAECAL EGG COUNT, day 14” value ([1]; single dose 6.0 mg/kg)?
The value was 0 Eggs/g faeces.

What about the “POST MORTEM RESULT No. of adult fluke” value ([1]; single dose 6.0 mg/kg) of the same molecule?
Its value is 0.

What about the “effective against immature fluke” value (immature fluke; 15 mg/kg) of the same molecule?
Its value is 97%.

For `O=[N+]([O-])c1cc(Cl)cc(C(c2cc(Cl)cc([N+](=O)[O-])c2O)C(F)(F)C(F)(F)F)c1O` [Compound 54], which “FAECAL EGG COUNT, day 7” value ([1]; single dose 2.0 mg/kg) is on record?
The value was 10 Eggs/g faeces.

What about the “FAECAL EGG COUNT, day 14” value ([1]; single dose 2.0 mg/kg) of the same molecule?
The value was 0 Eggs/g faeces.

And the “POST MORTEM RESULT No. of adult fluke” value ([1]; single dose 2.0 mg/kg)?
The value was 0.

And the “FAECAL EGG COUNT, day 7” value ([1]; single dose 6.0 mg/kg)?
The value was 0 Eggs/g faeces.

What about the “FAECAL EGG COUNT, day 14” value ([1]; single dose 6.0 mg/kg) of the same molecule?
The value was 0 Eggs/g faeces.

What about the “POST MORTEM RESULT No. of adult fluke” value ([1]; single dose 6.0 mg/kg) of the same molecule?
Its value is 0.

What about the “effective against immature fluke” value (immature fluke; 15 mg/kg) of the same molecule?
Its value is 83%.

What does the source list for `O=[N+]([O-])c1cc(Br)cc(C(c2cc(Br)cc([N+](=O)[O-])c2O)C(F)(F)F)c1O` [Compound 56]?
minimal effective concentration (live Fasciola hepatica): 1 µg/mL; FAECAL EGG COUNT, day 7 ([1]; single dose 6.0 mg/kg): 10 Eggs/g faeces; FAECAL EGG COUNT, day 14 ([1]; single dose 6.0 mg/kg): 0 Eggs/g faeces; POST MORTEM RESULT No. of adult fluke ([1]; single dose 6.0 mg/kg): 0

Reference: patent US4251546A, “Process for killing internal helminths using certain 1,1-bis-(2-substituted-3-nitrophenyl)alkane or alkylene derivatives” (ICI Australia Limited, priority 1977, dated 1981)
